Experimental data published in patent US20250255781A1, “PROCESSES FOR PREPARATION OF 3-D PRINTED PHARMACEUTICAL PRODUCTS” (BRISTOL-MYERS SQUIBB COMPANY, priority 2022, published 2025).

Test: Thermal gravimetric analysis (TGA) of thermal stability
Type: physicochemical
Settings: heated 25-500° C. at 10° C./min; degradation beyond
Experimental: 2-2.5 mg of polymer and drug samples were carefully weighed and positioned in to a standard aluminium pan. The samples were heated from 25° C. to 500° C. at 10° C./min. The extracted raw data were analysed via TA Universal Analysis software (Universal Analysis 2000, version 4.5A, TA instruments, USA).

thermally stable when heated up to (TGA): up to 140 °C
SMILES: CC(C)Cc1ccc(C(C)C(=O)O)cc1 (stereo not shown) [IBU, Ibuprofen]
